pEC50: −log10 of the molar value.
Legend:
HepG2 cells = assay: Cytotoxicity in HepG2 cells, 4 days, Resazurin assay; details: read-out: HepG2 4 days CC50; HepG2 cells, 4 days, Resazurin
HBV [1] = assay: Anti-HBV activity in HepG2.117 cell line (Tet-off, intracellular HBV DNA, realtime PCR); assay type: cell-based; details: HepG2.117 cells, 3 days of treatment, intracellular HBV DNA, read-out: HepG2 117 EC50
HBV [2] = assay: Anti-HBV activity in stable transfected HepG2.2.15 cell line (HBV DNA from secreted virions, realtime PCR); assay type: cell-based; details: HepG2.2.15 cells, 6 days of treatment, secreted virion HBV DNA, read-out: HepG2 2.15 EC50
[3] = Cytotoxicity in HepG2 cells, 4 days, Resazurin assay; details: human, HepG2 cells
[4] = Hepatitis B virus, HepG2.117, 72 h
[5] = Hepatitis B virus, HepG2.2.15, 144 h

Cc1cc(NC(=O)c2cccc(S(=O)(=O)NC3CC(=O)N(C)C3)c2)ccc1F (racemic) [Compound 179a]
CC50 (HepG2 cells): > 25 µM
pEC50 (HBV [1]): 6.60
pEC50 (HBV [2]): 6.42

Cc1cc(NC(=O)c2cccc(S(=O)(=O)NC3CC(=O)N(C)C3)c2)ccc1F (racemic) [Compound 179b]
CC50 (HepG2 cells): > 25 µM
pEC50 (HBV [1]): 5.74
pEC50 (HBV [2]): 5.95

Cc1cc(NC(=O)c2cccc(S(=O)(=O)NC3Cc4ccccc4C3O)c2)ccc1F (single isomer, unassigned) [Compound 141b, N-(4-fluoro-3-methyl-phenyl)-3-[[(1R,2S)-1-hydroxyindan-2-yl]sulfamoyl]benzamide or N-(4-fluoro-3-methyl-phenyl)-3-[[(1S,2R)-1-hydroxyindan-2-yl]sulfamoyl]benzamide]
CC50 (HepG2 cells): > 25 µM
pEC50 (HBV [1]): 6.64
pEC50 (HBV [2]): 6.57

Cc1cc(NC(=O)c2cccc(S(=O)(=O)NC3Cc4ccccc4C3O)c2)ccc1F (single isomer, unassigned) [Compound 141c, N-(4-fluoro-3-methyl-phenyl)-3-[[(1S,2S)-1-hydroxyindan-2-yl]-sulfamoyl]benzamide or N-(4-fluoro-3-methyl-phenyl)-3-[[(1R,2R)-1-hydroxyindan-2-yl]sulfamoyl]benzamide]
CC50 (HepG2 cells): > 25 µM
pEC50 (HBV [1]): 6.54
pEC50 (HBV [2]): 6.77

Cc1cc(NC(=O)c2cccc(S(=O)(=O)NC3Cc4ccccc4C3O)c2)ccc1F (single isomer, unassigned) [Compound 141d, N-(4-fluoro-3-methyl-phenyl)-3-[[(1R,2S)-1-hydroxyindan-2-yl]sulfamoyl]benzamide or N-(4-fluoro-3-methyl-phenyl)-3-[[(1S,2R)-1-hydroxyindan-2-yl]sulfamoyl]benzamide]
CC50 (HepG2 cells): > 25 µM
pEC50 (HBV [1]): 5.94
pEC50 (HBV [2]): 6.25

Cc1cc(NC(=O)c2cccc(S(=O)(=O)NC3CCC(O)C3)c2)ccc1F (single isomer, unassigned) [Compound 145b, N-(4-fluoro-3-methyl-phenyl)-3-[[(1R,3S)-3-hydroxycyclopentyl]sulfamoyl]benzamide or N-(4-fluoro-3-methyl-phenyl)-3-[[(1S,3R)-3-hydroxycyclopentyl]sulfamoyl]benzamide]
CC50 (HepG2 cells): > 25 µM
pEC50 (HBV [1]): 6.24
pEC50 (HBV [2]): 6.36

Cc1cc(NC(=O)c2cccc(S(=O)(=O)NC3CCC(O)C3)c2)ccc1F (single isomer, unassigned) [Compound 145c, N-(4-fluoro-3-methyl-phenyl)-3-[[(1S,3S)-3-hydroxycyclopentyl]-sulfamoyl]benzamide or N-(4-fluoro-3-methyl-phenyl)-3-[[(1R,3R)-3-hydroxycyclopentyl]sulfamoyl]benzamide]
CC50 (HepG2 cells): > 25 µM
pEC50 (HBV [1]): 6.47
pEC50 (HBV [2]): 6.47

Cc1cc(NC(=O)c2cccc(S(=O)(=O)NC3CCC(O)C3)c2)ccc1F (single isomer, unassigned) [Compound 145d, N-(4-fluoro-3-methyl-phenyl)-3-[[(1S,3S)-3-hydroxycyclopentyl]-sulfamoyl]benzamide or N-(4-fluoro-3-methyl-phenyl)-3-[[(1R,3R)-3-hydroxycyclopentyl]sulfamoyl]benzamide]
CC50 (HepG2 cells): > 25 µM
pEC50 (HBV [1]): 6.19
pEC50 (HBV [2]): 6.40

O=C(Nc1ccc(F)cc1)c1cccc(S(=O)(=O)NC2CCOCC2)c1 [Compound 1]
CC50 (HepG2 cells): > 100 µM
pEC50 (HBV [1]; [4]): 5.78
pEC50 (HBV [2]; [5]): 6.03

O=C(Nc1ccc(F)cc1)c1cccc(S(=O)(=O)NC2CCCC2)c1 [Compound 2]
CC50 (HepG2 cells): 32.7 µM
pEC50 (HBV [1]; [4]): 6.25
pEC50 (HBV [2]; [5]): 6.33

O=C(Nc1ccc(F)cc1)c1cccc(S(=O)(=O)NC2COC2)c1 [Compound 3]
CC50 (HepG2 cells): > 100 µM
pEC50 (HBV [1]; [4]): 5.52
pEC50 (HBV [2]; [5]): 5.68

O=C(Nc1ccc(F)cc1)c1cccc(S(=O)(=O)NC2CCCCC2)c1 [Compound 6]
CC50 (HepG2 cells): > 25 µM
pEC50 (HBV [1]; [4]): 6.24

O=C(Nc1ccc(F)c(C(F)F)c1)c1cccc(S(=O)(=O)N[C@H]2CCOC2)c1F [Compound 220]
CC50 at 4 days [3]: > 25 µM
pEC50 (HBV [1]; [4]): 7.05
pEC50 (HBV [2]; [5]): 6.96

Cc1cc(NC(=O)c2cccc(S(=O)(=O)NC3(C)COC3)c2F)ccc1F [Compound 222]
CC50 at 4 days [3]: > 25 µM
pEC50 (HBV [1]; [4]): 7.00
pEC50 (HBV [2]; [5]): 7.30

Cc1cc(NC(=O)c2cccc(S(=O)(=O)NC(C)Cc3ccncc3)c2)ccc1F (centres unmarked) [Compound 224]
CC50 at 4 days [3]: > 25 µM
pEC50 (HBV [1]; [4]): 6.12
pEC50 (HBV [2]; [5]): 6.80

Cc1cc(NC(=O)c2cccc(S(=O)(=O)N[C@H](C)C(F)(F)F)c2)ccc1F [Compound 225]
CC50 at 4 days [3]: > 25 µM
pEC50 (HBV [1]; [4]): 5.87
pEC50 (HBV [2]; [5]): 7.05

Cc1cc(NC(=O)c2cccc(S(=O)(=O)N[C@@H](C)C(F)(F)F)c2)ccc1F [Compound 226]
CC50 at 4 days [3]: > 25 µM
pEC50 (HBV [1]; [4]): 5.72
pEC50 (HBV [2]; [5]): 6.57

Cc1cc(NC(=O)c2cccc(S(=O)(=O)NCC(F)F)c2)ccc1F [Compound 227]
CC50 at 4 days [3]: > 25 µM
pEC50 (HBV [1]; [4]): 6.15
pEC50 (HBV [2]; [5]): 6.80

Cc1cc(NC(=O)c2cccc(S(=O)(=O)NCC(F)(F)F)c2)ccc1F [Compound 228]
CC50 at 4 days [3]: > 25 µM
pEC50 (HBV [1]; [4]): 5.92
pEC50 (HBV [2]; [5]): 6.77

Cc1cc(NC(=O)c2cccc(S(=O)(=O)NC3CCC(F)(F)C3)c2)ccc1F (centres unmarked) [Compound 229]
CC50 at 4 days [3]: > 25 µM
pEC50 (HBV [1]; [4]): 6.31
pEC50 (HBV [2]; [5]): 6.70

Cc1cc(NC(=O)c2cc(S(=O)(=O)NC(C)C)oc2C)ccc1F [Compound 230]
CC50 at 4 days [3]: > 25 µM
pEC50 (HBV [1]; [4]): 5.82
pEC50 (HBV [2]; [5]): 6.14

Cc1cc(NC(=O)c2ccc(S(=O)(=O)NC3(C)COC3)o2)ccc1F [Compound 231]
CC50 at 4 days [3]: > 25 µM
pEC50 (HBV [1]; [4]): 6.49
pEC50 (HBV [2]; [5]): 6.68

CC1(NS(=O)(=O)c2ccc(Cl)c(C(=O)Nc3ccc(F)c(C(F)(F)F)c3)c2)COC1 [Compound 233]
CC50 at 4 days [3]: > 25 µM
pEC50 (HBV [1]; [4]): < 6.00
pEC50 (HBV [2]; [5]): < 6.00

CC1(NS(=O)(=O)c2ccc(Cl)c(C(=O)Nc3ccc(F)c(F)c3)c2)COC1 [Compound 234]
CC50 at 4 days [3]: > 25 µM
pEC50 (HBV [1]; [4]): 6.47
pEC50 (HBV [2]; [5]): 6.14

CC1(NS(=O)(=O)c2ccc(Cl)c(C(=O)Nc3ccc(F)c(C(F)F)c3)c2)COC1 [Compound 235]
CC50 at 4 days [3]: > 25 µM
pEC50 (HBV [1]; [4]): 6.48
pEC50 (HBV [2]; [5]): 6.08

Cc1cc(NC(=O)c2cc(S(=O)(=O)N[C@H]3CCOC3)ccc2F)ccc1F [Compound 236]
CC50 at 4 days [3]: > 25 µM
pEC50 (HBV [1]; [4]): 5.80
pEC50 (HBV [2]; [5]): 6.32

Cc1cc(NC(=O)c2cc(S(=O)(=O)N[C@H]3CCOC3)ccc2Br)ccc1F [Compound 237]
CC50 at 4 days [3]: > 25 µM
pEC50 (HBV [1]; [4]): 6.89
pEC50 (HBV [2]; [5]): 6.37

Cc1ccc(S(=O)(=O)NC2(C)COC2)cc1C(=O)Nc1ccc(F)c(C(F)(F)F)c1 [Compound 238]
CC50 at 4 days [3]: > 25 µM
pEC50 (HBV [1]; [4]): 6.30
pEC50 (HBV [2]; [5]): 6.21

Cc1cc(NC(=O)c2ccc(F)c(S(=O)(=O)N[C@H]3CCOC3)c2)ccc1F [Compound 239]
CC50 at 4 days [3]: > 25 µM
pEC50 (HBV [1]; [4]): 6.28
pEC50 (HBV [2]; [5]): 6.32

Cc1cc(NC(=O)c2cc(F)cc(S(=O)(=O)NC(C)C)c2)ccc1F [Compound 240]
CC50 at 4 days [3]: > 25 µM
pEC50 (HBV [1]; [4]): 5.54
pEC50 (HBV [2]; [5]): 6.40

Cc1cc(NC(=O)c2cc(F)cc(S(=O)(=O)N[C@H]3CCOC3)c2)ccc1F [Compound 241]
CC50 at 4 days [3]: > 25 µM
pEC50 (HBV [1]; [4]): 5.75
pEC50 (HBV [2]; [5]): 6.42

Cc1cc(NC(=O)c2cc(S(=O)(=O)N[C@H]3CCOC3)ccc2C(F)(F)F)ccc1F [Compound 242]
CC50 at 4 days [3]: > 25 µM
pEC50 (HBV [1]; [4]): 5.74
pEC50 (HBV [2]; [5]): 5.72
